Reference: patent publication US9447408B2, “Method of efficiently establishing induced pluripotent stem cells” (Kyoto University, priority 2010, dated 2016)

System: Human dermal fibroblasts (HDF 1616 line)
Test: Human iPS cell colony formation, 4 genes introduced, SB202190 added Day 0 or day 5
Format: cell-based
Experimental: Human dermal fibroblasts (HDF 1616 line) were treated using a lentivirus (pLenti6/UbC-Slc7a1) according to the method described by Takahashi, K. et al. in Cell, 131: 861-872 (2007), to express the mouse ecotropic virus receptor Slc7a1 gene. These cells were seeded to a 6-well culture plate (Falcon), previously coated with 0.1% gelatin (Sigma), at 1.0×10^5 cells per well. The following day, the four human genes were introduced using a retrovirus according to the method described by Takahashi, K. et al. in Cell, 131: 861-872 (2007). On day 4 after the infection, 2.0×10^5 cells were seeded to a 100 mm dish, containing previously seeded feeder cells. To determine the effect of a p38 inhibitor, SB202190 was added simultaneously with the infection (Day 0), or on day 5 after the infection, and the efficiency of iPS cell establishment was compared. On day 16 after the infection, iPS cell colonies were counted. The results are shown in the upper panel in FIG. 3. In the context of introduction of the four genes (Oct3/4, Sox2, Klf4, C-Myc), the number of human iPS cell colonies increased with the addition of SB202190 in the initial stage after the infection, compared with the addition of DMSO for control and the addition of SB202190 on day 5 after the infection. The four genes were introduced using a retrovirus in the same manner, but at a different cell density (3×10^4 cells/10 cm dish), with simultaneous addition of SB202190 (Day 0). SB202190 was added also on day 5 after the infection, and the efficiency of iPS cell establishment was compared. On day 16 after the infection, colony sizes were measured. The results are shown in the lower panel in FIG. 3. Even when the cell density was changed, the number of iPS cell colonies increased with the addition of SB202190 along with the four factors (Oct3/4, Sox2, Klf4, C-Myc), compared with the addition of DMSO.

Oc1ccc(-c2nc(-c3ccc(F)cc3)c(-c3ccncc3)[nH]2)cc1 [SB202190, 4-(4-fluorophenyl)-2-(4-hydroxyphenyl)-5-(4-pyridyl)imidazole]
number of human iPS cell colonies on day 16 after the infection (2.0×10^5 cells/100 mm dish, added in the initial stage (Day 0), compared with DMSO and addition on day 5): increased
number of iPS cell colonies on day 16 compared with DMSO (3×10^4 cells/10 cm dish): increased
efficiency of iPS cell establishment, added on day 5 versus simultaneously with the infection (lower cell density 3×10^4 cells/10 cm dish): higher
